Measured values as given in PMC9308496 (Journal of medicinal chemistry, 2021).
pIC50, pKi: −log10 of the molar value.

Assays:
[1] = dogs; cited from earlier work
hD2R (human D2LR) = hD2R (human D2LR) (Homo sapiens, UniProt P14416); test: Radioligand competition binding at hD2R with [3H]-N-methylspiperone
MOR (SNAP-mMOR) = MOR (SNAP-mMOR) (Mus musculus, UniProt P42866); test: BRET antagonism at MOR using GPA in the presence of 100 nM DAMGO; format: cell-based
hD3R = hD3R (Homo sapiens, UniProt P35462); test: Radioligand competition binding at hD3R with [3H]-N-methylspiperone
Chain of hD3R (P35462 whole entry): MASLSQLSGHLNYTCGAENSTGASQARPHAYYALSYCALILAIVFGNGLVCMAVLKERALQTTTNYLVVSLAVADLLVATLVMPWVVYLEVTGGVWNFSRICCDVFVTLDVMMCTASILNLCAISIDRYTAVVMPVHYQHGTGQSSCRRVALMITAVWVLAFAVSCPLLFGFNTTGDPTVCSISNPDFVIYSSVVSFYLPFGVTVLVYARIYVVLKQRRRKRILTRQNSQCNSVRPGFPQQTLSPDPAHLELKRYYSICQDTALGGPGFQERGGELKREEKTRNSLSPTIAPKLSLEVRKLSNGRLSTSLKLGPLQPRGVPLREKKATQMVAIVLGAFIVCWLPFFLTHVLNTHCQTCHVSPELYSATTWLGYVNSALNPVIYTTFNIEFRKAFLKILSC

Chain of MOR (SNAP-mMOR) (P42866 whole entry): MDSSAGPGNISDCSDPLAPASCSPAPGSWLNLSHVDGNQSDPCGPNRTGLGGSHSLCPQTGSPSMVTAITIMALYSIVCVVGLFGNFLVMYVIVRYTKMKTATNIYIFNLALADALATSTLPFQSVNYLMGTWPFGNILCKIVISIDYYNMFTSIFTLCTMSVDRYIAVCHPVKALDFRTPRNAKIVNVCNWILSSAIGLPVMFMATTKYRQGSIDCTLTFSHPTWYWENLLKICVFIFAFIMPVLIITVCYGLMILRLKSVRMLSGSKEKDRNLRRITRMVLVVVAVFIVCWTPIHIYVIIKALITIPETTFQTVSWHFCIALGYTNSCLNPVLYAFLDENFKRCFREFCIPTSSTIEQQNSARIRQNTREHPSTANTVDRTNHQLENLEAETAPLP
Chain of hD2R (human D2LR) (P14416 whole entry): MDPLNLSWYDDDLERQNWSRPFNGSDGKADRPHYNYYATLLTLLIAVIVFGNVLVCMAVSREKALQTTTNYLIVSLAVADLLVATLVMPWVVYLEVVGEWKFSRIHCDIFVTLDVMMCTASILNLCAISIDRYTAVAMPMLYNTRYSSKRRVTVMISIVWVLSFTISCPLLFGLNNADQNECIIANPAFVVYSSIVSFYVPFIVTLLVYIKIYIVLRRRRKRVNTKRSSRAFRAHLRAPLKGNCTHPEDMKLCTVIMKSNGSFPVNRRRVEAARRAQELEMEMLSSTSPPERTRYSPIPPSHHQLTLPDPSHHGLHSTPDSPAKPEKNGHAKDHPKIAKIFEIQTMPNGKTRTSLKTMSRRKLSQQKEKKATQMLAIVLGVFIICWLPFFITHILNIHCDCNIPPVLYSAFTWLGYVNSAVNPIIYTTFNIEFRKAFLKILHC

## Cc1ncoc1-c1nnc(SCCCN2C[C@@H]3C[C@]3(c3ccc(C(F)(F)F)cc3F)C2)n1C [GSK598809]
[1]
  potentiation of hypertensive effects of cocaine: potentiation of hypertensive effects observed in dogs produced by cocaine

## CCC(=O)C(CC(C)N(C)C)(c1ccccc1)c1ccccc1 (centres unmarked) [compound 6, methadone]
hD2R (human D2LR)
  D2R Ki: completely inactive

## CCOC(=O)/C=C1\[C@@H]2CCC[C@@]1(c1cccc(O)c1)CCN2CCCCNC(=O)c1cc2ccccc2[nH]1 [compound 57, trans-Ethyl (Z)-2-((1S,5S)-2-(4-(1H-indole-2-carboxamido)butyl)-5-(3-hydroxyphenyl)-2-azabicyclo[3.3.1]nonan-9-ylidene)acetate]
MOR (SNAP-mMOR)
  pIC50: 5.45

## O=C(NCCCCN1CC[C@]2(c3cccc(O)c3)CCC[C@H]1[C@H]2O)c1cc2ccccc2[nH]1 [compound 62, N-(4-((1S,5S,9S)-9-Hydroxy-5-(3-hydroxyphenyl)-2-azabicyclo[3.3.1]nonan-2-yl)butyl)-1H-indole-2-carboxamide]
hD3R
  pKi: 7.10

## CCOC(=O)/C=C1\[C@@H]2CCC[C@@]1(c1cccc(O)c1)CCN2CCN1CCN(c2cccc(Cl)c2Cl)CC1 [compound 65, Ethyl (Z)-2-((1S,5S)-2-(2-(4-(2,3-dichlorophenyl)piperazin-1-yl)ethyl)-5-(3-hydroxyphenyl)-2-azabicyclo[3.3.1]nonan-9-ylidene)acetate]
hD3R
  pKi: 6.86
